The values that follow come from patent US6447786B1, “Blocking expression of virulence factors in S. aureus” (New York University, priority 1994, dated 2002).

No end group written: not given here.

Common to all, as to type: cell-based
Test [1] deals with RNAIII transcription of various S. aureus strains.
Test [2] deals with RNAIII transcription of S. aureus RN8463.
The test system of test [3] is agr transcription of S. aureus RN6390B.
Test [4] has as its system RNAIII transcription of S. aureus RN6607.

With DICNAYF [S. lugdunensis pheromone], the “S. aureus strains tested in which the agr response is inhibited” value in test [1] was 5 of 6.

As for “GVNACSSLF [peptide from RN6607, peptide purified from supernatant of strain with cloned agrBD genes of RN6607]”, the “Effect of purified peptide on RNAIII transcription” value (“Effect of purified peptide” for short) in test [2] is on record as “inhibitor effect”; in test [3], “inhibitor effect”; in test [4], “activator effect”.

Take “YINCDFLL [peptide from RN8463, peptide purified from supernatant of strain with cloned agrBD genes of RN8463]”: the “Effect of purified peptide” value in test [2] was “activator effect”; in test [3], “inhibitor effect”; in test [4], “inhibitor effect”.

For YSTCDFIM [activator peptide], the “Effect of purified peptide” value in test [2] is given as “inhibitor effect”; in test [3], “activator effect”; in test [4] it was “inhibitor effect”.
